Laboratory results as given in ChEMBL document CHEMBL5113413, “New peptidomimetic rhodesain inhibitors with improved selectivity towards human cathepsins” (Eur J Med Chem, 2022).
Active and inactive are the calls of the source. The rule behind the calls is not given here.

Key:
Cathepsin B [1] = biological target: T1, Cathepsin B (Homo sapiens, UniProt P07858); experiment: Inhibition of human Cathepsin B at 20 uM using Cbz-Phe-Arg-AMC as fluorogenic substrate by fluorometric assay
[2] = biological target: Rhodesain (Trypanosoma brucei rhodesiense) (UniProt Q95PM0); experiment: Irreversible inhibition of Trypanosoma brucei rhodesiense rhodesain assessed as Kinact using Cbz-Phe-Arg-AMC as fluorogenic substrate by fluorometric assay
Procathepsin L [3] = biological target: T2, Procathepsin L (Homo sapiens, UniProt P07711); experiment: Irreversible inhibition of human Cathepsin L assessed as Kinact using Cbz-Phe-Arg-AMC as fluorogenic substrate by fluorometric assay
Target sequence in this assay (P07711 114-333 limits assumed): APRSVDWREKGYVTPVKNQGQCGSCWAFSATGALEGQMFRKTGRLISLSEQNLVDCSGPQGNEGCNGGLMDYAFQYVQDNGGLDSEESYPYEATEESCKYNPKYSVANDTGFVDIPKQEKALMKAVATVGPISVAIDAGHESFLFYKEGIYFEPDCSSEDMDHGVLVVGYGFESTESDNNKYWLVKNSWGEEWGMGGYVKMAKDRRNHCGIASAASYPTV

Rhodesain = Rhodesain (Trypanosoma brucei rhodesiense, UniProt Q95PM0); experiment: Irreversible inhibition of Trypanosoma brucei rhodesiense rhodesain assessed as inhibition constant using Cbz-Phe-Arg-AMC as fluorogenic substrate by fluorometric assay
Procathepsin L [4] = biological target: T2, Procathepsin L; experiment: Irreversible inhibition of human Cathepsin L assessed as inhibition constant using Cbz-Phe-Arg-AMC as fluorogenic substrate by fluorometric assay
Target sequence in this assay (P07711 whole entry): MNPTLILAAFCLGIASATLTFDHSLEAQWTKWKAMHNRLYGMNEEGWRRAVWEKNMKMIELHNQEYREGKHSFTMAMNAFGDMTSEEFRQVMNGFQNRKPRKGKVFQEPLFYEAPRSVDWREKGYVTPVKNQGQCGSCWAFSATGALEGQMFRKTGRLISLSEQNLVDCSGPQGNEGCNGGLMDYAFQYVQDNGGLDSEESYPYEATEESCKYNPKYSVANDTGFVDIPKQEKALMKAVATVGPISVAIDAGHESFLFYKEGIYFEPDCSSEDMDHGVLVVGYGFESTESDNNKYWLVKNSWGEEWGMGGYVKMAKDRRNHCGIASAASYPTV

[5] = biological target: Rhodesain (Trypanosoma brucei rhodesiense) (UniProt Q95PM0); experiment: Irreversible inhibition of Trypanosoma brucei rhodesiense rhodesain assessed as second order rate constant using Cbz-Phe-Arg-AMC as fluorogenic substrate by fluorometric assay
Procathepsin L [6] = biological target: T2, Procathepsin L; experiment: Irreversible inhibition of human Cathepsin L assessed as second order rate constant using Cbz-Phe-Arg-AMC as fluorogenic substrate by fluorometric assay
Target sequence in this assay (P07711 114-333 limits assumed): as the sequence (P07711 114-333 limits assumed) above

Cathepsin B [7] = biological target: T1, Cathepsin B; experiment: Irreversible inhibition of human Cathepsin B assessed as second order rate constant using Cbz-Phe-Arg-AMC as fluorogenic substrate by fluorometric assay
[8] = biological target: Genome polyprotein (dengue virus type 2) (UniProt P29990); experiment: Inhibition of Dengue virus NS2B-NS3 protease at 11 uM using Boc-Gly-Arg-Arg-AMC as fluorogenic substrate by fluorometric assay
Cathepsin B [9] = biological target: T1, Cathepsin B; experiment: Irreversible inhibition of human Cathepsin B assessed as inhibition constant using Cbz-Phe-Arg-AMC as fluorogenic substrate by fluorometric assay
[10] = biological target: T3, 20S proteasome (Homo sapiens) (UniProt P49721+P20618+P28074+P28062+P28065+P28072+P25786+P25787+P25788+P25789+P28066+P60900+O14818+Q8TAA3+P40306+A5LHX3+P49720+P28070+Q99436); experiment: Inhibition of human 20S proteasome caspase-like activity at 11 uM using Cbz-Leu-Leu-Glu-AMC as fluorogenic substrate by fluorometric assay; format: protein-complex assay
Cathepsin B [11] = biological target: T1, Cathepsin B; experiment: Irreversible inhibition of human Cathepsin B assessed as Kinact using Cbz-Phe-Arg-AMC as fluorogenic substrate by fluorometric assay
Procathepsin L [12] = biological target: T2, Procathepsin L; experiment: Inhibition of human Cathepsin L at 20 uM using Cbz-Phe-Arg-AMC as fluorogenic substrate by fluorometric assay
Target sequence in this assay (P07711 114-333 limits assumed): as above

[13] = Cytotoxicity against mouse J774.1 cells assessed as reduction in cell viability incubated for 48 hrs by MTT assay; format: toxicity, cell-based
[14] = system: Trypanosoma brucei brucei; experiment: Antitrypanosomal activity against Trypanosoma brucei brucei BS449 assessed as luminescence incubated for 48 hrs by ATPlite assay; format: functional, organism-based; details: BS449, 48 h
[15] = biological target: Rhodesain (Trypanosoma brucei rhodesiense) (UniProt Q95PM0); experiment: Irreversible inhibition of Trypanosoma brucei rhodesiense rhodesain assessed as no recovery of enzyme activity preincubated for 30 mins followed by substrate addition using Cbz-Phe-Arg-AMC as fluorogenic substrate by fluorometric 100-fold dilution assay
[16] = biological target: Rhodesain (Trypanosoma brucei rhodesiense) (UniProt Q95PM0); experiment: Reversible inhibition of Trypanosoma brucei rhodesiense rhodesain assessed as recovery of enzyme activity preincubated for 30 mins followed by substrate addition using Cbz-Phe-Arg-AMC as fluorogenic substrate by fluorometric 100-fold dilution assay
[17] = biological target: T3, 20S proteasome (Homo sapiens); experiment: Inhibition of human 20S proteasome chymotrypsin-like activity at 11 uM using Succ-Leu-Leu-Val-Tyr-AMC as fluorogenic substrate by fluorometric assay; format: protein-complex assay

Chain of Rhodesain (Q95PM0 whole entry): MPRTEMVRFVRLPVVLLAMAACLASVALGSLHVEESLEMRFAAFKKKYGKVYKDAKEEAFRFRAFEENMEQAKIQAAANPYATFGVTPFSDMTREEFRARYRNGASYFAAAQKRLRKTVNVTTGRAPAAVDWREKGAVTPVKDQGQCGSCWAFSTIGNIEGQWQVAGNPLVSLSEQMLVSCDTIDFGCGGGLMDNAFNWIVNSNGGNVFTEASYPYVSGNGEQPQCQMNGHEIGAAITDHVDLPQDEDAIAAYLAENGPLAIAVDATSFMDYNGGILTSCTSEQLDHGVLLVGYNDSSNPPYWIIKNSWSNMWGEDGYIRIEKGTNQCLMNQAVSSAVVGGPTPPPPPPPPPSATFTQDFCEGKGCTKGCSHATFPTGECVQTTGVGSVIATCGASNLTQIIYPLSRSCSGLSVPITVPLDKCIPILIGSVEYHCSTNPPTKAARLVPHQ
Chain of Rhodesain (Trypanosoma brucei rhodesiense) (Q95PM0 1-450): as the sequence (Q95PM0 whole entry) above

O=C(NCc1ccccc1C(=O)N[C@H](/C=C/S(=O)(=O)c1ccccc1)CCc1ccccc1)c1ccncc1
inhibition (Cathepsin B [1]): 44%
Kinact [2]: 0.0046 s⁻¹
Kinact (Procathepsin L [3]): 0.0026 s⁻¹
Ki (Rhodesain): 0.107 µM
Ki (Procathepsin L [4]): 2.25 µM
Second-order inactivation rate constant (kinact/Ki) [5]: 0.43 10^5/M/s
Second-order inactivation rate constant (Procathepsin L [6]): 1.16 10^3/M/s

O=C(NCc1ccccc1C(=O)N[C@H](/C=C/S(=O)(=O)c1ccccc1)CCc1ccccc1)c1cc(F)cc(F)c1
Kdiss (Cathepsin B [7]): 7.24 10^2/M/s
Kinact [2]: 0.0173 s⁻¹
Kinact (Procathepsin L [3]): 0.0045 s⁻¹
inhibition [8]: 11%
Ki (Cathepsin B [9]): 3.04 µM
inhibition [10]: 24%
Ki (Rhodesain): 0.109 µM
Ki (Procathepsin L [4]): 1.89 µM
Kinact (Cathepsin B [11]): 0.0022 s⁻¹
Second-order inactivation rate constant (kinact/Ki) [5]: 1.59 10^5/M/s
Second-order inactivation rate constant (Procathepsin L [6]): 2.38 10^3/M/s

O=C(NCc1ccccc1C(=O)N[C@H](/C=C(\F)S(=O)(=O)Oc1ccccc1)CCc1ccccc1)c1cc(F)cc(F)c1
inhibition (Cathepsin B [1]): < 10%
Ki (Rhodesain): 0.638 µM
inhibition (Procathepsin L [12]): 14%

CC(=O)N(Cc1ccccc1C(=O)N[C@H](/C=C/S(=O)(=O)c1ccccc1)CCc1ccccc1)C(C)=O
CC50 at 48 h [13]: 36 µM
EC50 [14]: 5.7 µM
Ki (Rhodesain): 0.94 µM

O=C(NCc1ccccc1C(=O)N[C@H](/C=C(\F)S(=O)(=O)c1ccccc1)CCc1ccccc1)c1ccncc1
inhibition (Cathepsin B [1]): < 10%
Ki (Rhodesain): 0.43 µM
Ki (Procathepsin L [4]): 14.1 µM

O=C(Cc1ccccc1C(=O)N[C@H](/C=C/S(=O)(=O)c1ccccc1)CCc1ccccc1)Nc1ccc(C(=O)O)cc1
EC50 [14]: 28 µM
Ki (Rhodesain): 0.29 µM

O=C(NCc1ccccc1C(=O)N[C@H](/C=C(\F)S(=O)(=O)Oc1ccccc1)CCc1ccccc1)c1ccncc1
CC50 at 48 h [13]: > 100 µM
EC50 [14]: 1.8 µM
Ki (Rhodesain): 0.916 µM

O=C(NCc1ccccc1C(=O)N[C@H](/C=C/S(=O)(=O)Cc1ccccc1)CCc1ccccc1)c1ccncc1
Kinact [2]: 0.006 s⁻¹
Ki (Rhodesain): 0.436 µM
Second-order inactivation rate constant (kinact/Ki) [5]: 0.14 10^5/M/s

CNC(=O)Cc1ccccc1C(=O)N[C@H](/C=C/S(=O)(=O)c1ccccc1)CCc1ccccc1
CC50 at 48 h [13]: > 100 µM
EC50 [14]: 13 µM
Ki (Rhodesain): 0.47 µM

O=C(NCc1ccccc1C(=O)N[C@H](/C=C/S(=O)(=O)Oc1ccccc1)CCc1ccccc1)c1ccncc1
inhibition [8]: 26%
Ki (Cathepsin B [9]): 1.01 µM
inhibition [10]: 41%
EC50 [14]: 4.2 µM
Ki (Rhodesain): 0.009 µM
Ki (Procathepsin L [4]): 1.15 µM

O=C(NCc1ccccc1C(=O)N[C@H](/C=C/S(=O)(=O)Cc1ccccc1)CCc1ccccc1)c1ccc2c(c1)OCCO2
inhibition (Cathepsin B [1]): < 10%
Kinact [2]: 0.0038 s⁻¹
Ki (Rhodesain): 0.059 µM
Second-order inactivation rate constant (kinact/Ki) [5]: 0.64 10^5/M/s
inhibition (Procathepsin L [12]): 39%

O=C(NCc1ccccc1C(=O)N[C@H](/C=C/S(=O)(=O)Cc1ccccc1)CCc1ccccc1)c1cc(F)cc(F)c1
inhibition (Cathepsin B [1]): < 10%
Kinact [2]: 0.0125 s⁻¹
Ki (Rhodesain): 0.356 µM
Second-order inactivation rate constant (kinact/Ki) [5]: 0.35 10^5/M/s
inhibition (Procathepsin L [12]): 31%

O=C(O)c1ccc(C(=O)NCc2ccccc2C(=O)N[C@H](/C=C/S(=O)(=O)c2ccccc2)CCc2ccccc2)cc1
Kinact [2]: 0.0031 s⁻¹
Ki (Rhodesain): 4.03 µM
Second-order inactivation rate constant (kinact/Ki) [5]: 0.0077 10^5/M/s

O=C(NCc1ccccc1C(=O)N[C@H](/C=C(\F)S(=O)(=O)c1ccccc1)CCc1ccccc1)c1cc(F)cc(F)c1
Ki (Rhodesain): 0.601 µM

CN1CCN(C(=O)N[C@@H](Cc2ccccc2)C(=O)N[C@H](/C=C/S(=O)(=O)c2ccccc2)CCc2ccccc2)CC1 [K-777]
inhibition [15]: Active
CC50 at 48 h [13]: 41 µM

O=C(NCc1ccccc1C(=O)N[C@H](/C=C(\F)S(=O)(=O)c1ccccc1)CCc1ccccc1)c1ccccc1
inhibition (Cathepsin B [1]): < 10%
CC50 at 48 h [13]: 43 µM
inhibition [10]: 25%
EC50 [14]: 3.3 µM
Ki (Rhodesain): 0.568 µM
Ki (Procathepsin L [4]): 8.8 µM

CC(=O)NCc1ccccc1C(=O)N[C@H](/C=C/S(=O)(=O)c1ccccc1)CCc1ccccc1
CC50 at 48 h [13]: 48 µM
EC50 [14]: 13.5 µM
Ki (Rhodesain): 4.68 µM

O=C(Cc1ccccc1C(=O)N[C@H](/C=C/S(=O)(=O)c1ccccc1)CCc1ccccc1)Nc1cccc(C(=O)O)c1
EC50 [14]: > 40 µM
Ki (Rhodesain): 17.6 µM

O=C(NCc1ccccc1C(=O)N[C@H](/C=C/S(=O)(=O)Cc1ccccc1)CCc1ccccc1)c1ccccc1
Kinact [2]: 0.0095 s⁻¹
Ki (Rhodesain): 0.389 µM
Second-order inactivation rate constant (kinact/Ki) [5]: 0.24 10^5/M/s

O=C(NCc1ccccc1C(=O)N[C@H](/C=C/S(=O)(=O)c1ccccc1)CCc1ccccc1)c1cccc(O)c1
CC50 at 48 h [13]: 36 µM
EC50 [14]: 3.3 µM
Ki (Rhodesain): 0.651 µM

O=C(NCc1ccccc1C(=O)N[C@H](/C=C(\F)S(=O)(=O)Cc1ccccc1)CCc1ccccc1)c1ccc2c(c1)OCCO2
inhibition [15]: Active
inhibition (Cathepsin B [1]): < 10%
Ki (Rhodesain): 0.491 µM
inhibition (Procathepsin L [12]): 15%
inhibition [16]: Active

O=C(NCc1ccccc1C(=O)N[C@H](/C=C/S(=O)(=O)Oc1ccccc1)CCc1ccccc1)c1cc(F)cc(F)c1
Kdiss (Cathepsin B [7]): 9.34 10^3/M/s
Kinact [2]: 0.0117 s⁻¹
Kinact (Procathepsin L [3]): 0.0022 s⁻¹
inhibition [8]: 35%
Ki (Cathepsin B [9]): 0.76 µM
inhibition [10]: 33%
Ki (Rhodesain): 0.015 µM
Ki (Procathepsin L [4]): 0.56 µM
Kinact (Cathepsin B [11]): 0.0071 s⁻¹
Second-order inactivation rate constant (kinact/Ki) [5]: 7.8 10^5/M/s
Second-order inactivation rate constant (Procathepsin L [6]): 3.92 10^3/M/s
inhibition [17]: 14%

O=C(O)c1cccc(C(=O)NCc2ccccc2C(=O)N[C@H](/C=C/S(=O)(=O)c2ccccc2)CCc2ccccc2)c1
CC50 at 48 h [13]: > 100 µM
EC50 [14]: 15 µM
Ki (Rhodesain): 7.43 µM

O=C(NCc1ccccc1C(=O)N[C@H](/C=C(\F)S(=O)(=O)Cc1ccccc1)CCc1ccccc1)c1cc(F)cc(F)c1
Ki (Rhodesain): 0.608 µM

O=C(NCc1ccccc1C(=O)N[C@H](/C=C(\F)S(=O)(=O)Cc1ccccc1)CCc1ccccc1)c1ccncc1
Ki (Rhodesain): 0.84 µM

O=C(NCc1ccccc1C(=O)N[C@H](/C=C/S(=O)(=O)c1ccccc1)CCc1ccccc1)c1ccc2c(c1)OCCO2
inhibition (Cathepsin B [1]): < 10%
Kinact [2]: 0.0005 s⁻¹
Ki (Rhodesain): 0.504 µM
Second-order inactivation rate constant (kinact/Ki) [5]: 0.01 10^5/M/s
inhibition (Procathepsin L [12]): 41%

O=C(NCc1ccccc1C(=O)N[C@H](/C=C/S(=O)(=O)Oc1ccccc1)CCc1ccccc1)c1ccc2c(c1)OCCO2
inhibition [15]: Active
Kdiss (Cathepsin B [7]): 1.64 10^4/M/s
Kinact [2]: 0.0079 s⁻¹
Kinact (Procathepsin L [3]): 0.0104 s⁻¹
inhibition [8]: 31%
Ki (Cathepsin B [9]): 0.8 µM
inhibition [10]: 43%
Ki (Rhodesain): 0.01 µM
Ki (Procathepsin L [4]): 0.31 µM
Kinact (Cathepsin B [11]): 0.013 s⁻¹
Second-order inactivation rate constant (kinact/Ki) [5]: 7.9 10^5/M/s
Second-order inactivation rate constant (Procathepsin L [6]): 3.34 10^4/M/s
inhibition [17]: 12%

CN1CCN(C(=O)NCc2ccccc2C(=O)N[C@H](/C=C/S(=O)(=O)Cc2ccccc2)CCc2ccccc2)CC1
Kinact [2]: 0.005 s⁻¹
Ki (Rhodesain): 0.318 µM
Second-order inactivation rate constant (kinact/Ki) [5]: 0.16 10^5/M/s
